Laboratory results as given in US20060089407A1, “Methods for Making and Using Synergistic Multifunctional Compositions” (NATIONAL RESEARCH LABORATORIES, LTD., priority 2004, published 2006).

What was measured:
[1] = tested on: viruses; conditions: cited from earlier work
[2] = tested on: normal cells; conditions: cited from earlier work
[3] = tested on: inflammatory processes

Row | Structure (SMILES) | anti-viral activity [1] | toxicity to normal cells [2] | anti-inflammatory performance [3]
1 | CC(=O)[O-].CC(=O)[O-].[Zn+2] [zinc acetate] | very toxic to viruses | quite toxic to normal cells | 
2 | O=C([O-])CC([O-])(CC(=O)[O-])C(=O)[O-].[Cu+2].[Na+].[Na+] [MCC, disodium monocopper (II) citrate dihydrate] |  |  | demonstrated utility on relieving inflammatory processes
